In patent US9920030B2 (priority 2006, dated 2018):
Read-outs that look alike come from different tables or passages of the source.

What was measured:
Format in all cases: in vivo
[1] = test system: Plasmopara vilicola (the causal agent of grape downy mildew); test: Test A: grape downy mildew, test suspension sprayed on grape seedlings after inoculation, visual disease rating; settings: for pest or weed control at 40 ppm: Plasmopara, 144 h, read-out: Percent Disease Control, Test A
Procedure, shortened: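 Curative spray: spores applied first, plants kept 24 h in saturated air at 20 °C and dried before treatment, then 5 days at 20 °C plus 24 h saturated. Suspension: acetone (3% of volume) in 1:1 acetone/water, 250 ppm Trem 014, sprayed to run-off (200 ppm ≈ 500 g/ha); visual 0–100 control rating.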

[2] = test system: Phytophthora infestans (the causal agent of tomato late blight); test: whole plant or invertebrate; settings: for pest or weed control at 40 ppm: Phytophthora infestans, 96 h, read-out: Percent Disease Control, Test C
[3] = test system: Phytophthora infestans (the causal agent of tomato late blight); test: whole plant or invertebrate; settings: for pest or weed control at 40 ppm: Phytophthora infestans, 144 h, read-out: Percent Disease Control, Test B
[4] = compounds without asterisk (application rate not given), 100 = 100% disease control, 0 = no control relative to the controls

| SMILES | Percent Disease Control, Test A ([1]; * tested at 40 ppm) | Percent Disease Control, Test C ([2]; * tested at 40 ppm) | Percent Disease Control, Test B ([3]; * tested at 40 ppm) | other results |
| --- | --- | --- | --- | --- |
| Cc1cc(C(F)(F)F)nn1CC(=O)N1CCC(c2nc(C3=NOC4(CCC(C(C)(C)C)CC4)C3)cs2)CC1 (stereo not drawn) [Compound 138] | 93% | 99% | 100% | – |
| Cc1cc(C(F)(F)F)nn1CC(=O)N1CCC(c2nc(C3=NOC(c4ccccc4)(c4ccccc4)C3)cs2)CC1 [Compound 139] | 87% | 87% | 98% | – |
| COc1ccccc1C1(C)CC(c2csc(C3CCN(C(=O)Cn4nc(C(F)(F)F)cc4C)CC3)n2)=NO1 (stereo not drawn) [Compound 140] | 98% | 57% | 100% | – |
| COCC1(c2ccccc2)CC(c2csc(C3CCN(C(=O)Cn4nc(C(F)(F)F)cc4C)CC3)n2)=NO1 (stereo not drawn) [Compound 141] | 99% | 99% | 100% | – |
| CSCC1(c2ccccc2)CC(c2csc(C3CCN(C(=O)Cn4nc(C(F)(F)F)cc4C)CC3)n2)=NO1 (stereo not drawn) [Compound 142] | 97% | 98% | 100% | – |
| Cc1cc(C(F)(F)F)nn1CC(=O)N1CCC(c2nc(C3=NOC(CS(C)(=O)=O)(c4ccccc4)C3)cs2)CC1 (stereo not drawn) [Compound 143] | 99% | 99% | 100% | – |
| Cc1cc(C(F)(F)F)nn1CC(=O)N1CCC(c2nc(C3=NOC(C[S+](C)[O-])(c4ccccc4)C3)cs2)CC1 (stereo not drawn) [Compound 144] | 99% | 93% | 100% | – |
| Cc1cc(C(F)(F)F)nn1CC(=O)N1CCC(c2nc(C3=CC(C)(c4ccccc4)OC3=O)cs2)CC1 (stereo not drawn) [Compound 145] | – | – | – | Percent Disease Control, Test A [1, 4]: 17%; Percent Disease Control, Test C [2, 4]: 0%; Percent Disease Control, Test B [3, 4]: 58% |
| Cc1c(C2(C)CC(c3csc(C4CCN(C(=O)Cn5nc(C(F)(F)F)cc5C)CC4)n3)=NO2)sc2cccc(Cl)c12 (stereo not drawn) [Compound 146] | – | – | – | Percent Disease Control, Test A [1, 4]: 83%; Percent Disease Control, Test C [2, 4]: 53%; Percent Disease Control, Test B [3, 4]: 100% |
| Cc1cc(C(F)(F)F)nn1CC(=O)N1CCC(c2nc(C3=NOC(C)(c4csc5ccccc45)C3)cs2)CC1 (stereo not drawn) [Compound 147] | 100% | 95% | 100% | – |
| Cc1cc(C(F)(F)F)nn1CC(=O)N1CCC(c2nc(C3=NOC(c4ccsc4)C3)cs2)CC1 (stereo not drawn) [Compound 148] | – | – | – | Percent Disease Control, Test A ([1]; ** tested at l0 ppm): 100%; Percent Disease Control, Test C ([2]; ** tested at l0 ppm): 99%; Percent Disease Control, Test B ([3]; ** tested at l0 ppm): 100% |
| Cc1cc(C(F)(F)F)nn1CC(=O)N1CCN(c2nc(C3=NOC(c4ccccc4)C3)cs2)CC1 (stereo not drawn) [Compound 154, 1-[4-[4-(4,5-dihydro-5-phenyl-3-isoxazolyl)-2-thiazolyl]-1-piperazinyl]-2-[5-methyl-3-(trifluoromethyl)-1H-pyrazol-1-yl]ethanone] | – | – | – | pest or weed control at 40 ppm ([1]; * tested at 40 ppm): 90%; pest or weed control at 40 ppm [2]: 99%; pest or weed control at 40 ppm [3]: 100% |
| CC(=O)OCC1(c2ccccc2)CC(c2csc(C3CCN(C(=O)Cn4nc(C(F)(F)F)cc4C)CC3)n2)=NO1 (stereo not drawn) [Compound 156] | 100% | 99% | 100% | – |
| Cc1cc(C(F)(F)F)nn1CC(=O)N1CCC(c2nc(C3=NOC(CO)(c4ccccc4)C3)cs2)CC1 (stereo not drawn) [Compound 159] | – | – | – | Percent Disease Control, Test A [1, 4]: 94%; Percent Disease Control, Test C [2, 4]: 99%; Percent Disease Control, Test B [3, 4]: 100% |
| Cc1cc(C(F)(F)F)nn1CC(=O)N1CCC(c2nc(Cn3ccc(-c4ccccc4)n3)cs2)CC1 [Compound 160] | – | – | – | Percent Disease Control, Test A [1, 4]: 68%; Percent Disease Control, Test C [2, 4]: 17%; Percent Disease Control, Test B [3, 4]: 80% |
| Cc1ccccc1[C@H]1CC(c2csc(C3CCN(C(=O)Cn4nc(C(F)(F)F)cc4C)CC3)n2)=NO1 [Compound 161, 1-[4-[4-[(5R)-4,5-dihydro-5-(2-methylphenyl)-3-isoxazolyl]-2-thiazolyl]-1-piperidinyl]-2-[5-methyl-3-(trifluoromethyl)-1H-pyrazol-1-yl]ethanone] | – | – | – | pest or weed control at 40 ppm ([1]; * tested at 40 ppm): 100%; pest or weed control at 40 ppm [2]: 99%; pest or weed control at 40 ppm [3]: 100% |
| Cc1cc(C(F)(F)F)nn1CC(=O)N1CCC(c2nc(C3=NOC(c4cccs4)C3)cs2)CC1 (stereo not drawn) [Compound 162] | 100% | 99% | 100% | – |
| Cc1cc(C)n(CC(=O)N2CCC(c3nc(C4=NO[C@]5(CCc6ccccc65)C4)cs3)CC2)n1 [Compound 165] | – | – | – | Percent Disease Control, Test A ([1]; ** tested at l0 ppm): 99%; Percent Disease Control, Test C ([2]; ** tested at l0 ppm): 99%; Percent Disease Control, Test B ([3]; ** tested at l0 ppm): 100% |
